Where a name gives a salt, the structure may show the parent alone.
Key:
[1] = system: C2C12 cells; test: Promotion of differentiation of myoblasts (MyHC fluorescent staining); assay type: cell-based, mouse
Description: C2C12 (American Type Culture Collection, CRL-1772™) cells are a myoblast cell line obtained from C3H mouse and is used in myoblast differentiation research. The C2C12 cells were cultured using growth media, and then cultured using differentiation media for differentiation induction. Here, DMEM supplemented with 10% fetal bovine serum was used as growth media (GM), and DMEM supplemented with 5% horse serum (HS) was used as differentiation media (DM). In order to confirm the effect of alverine citrate on promoting the differentiation of myoblasts, C2C12 cells were dispensed in the GM of Example 1.1 and cultured for 24 hours, and then the C2C12 cells were treated with DMSO, insulin, or alverine citrate, and induced for differentiation over 3 days. […] Here, the DMSO, insulin and alverine citrate used in the experiment were all purchased from Sigma-Aldrich. The group treated with insulin was used as the positive control group. In particular, C2C12 cells were dispensed in a 6-well plate treated with the GM of Example 1.1 at a concentration of 5×10^5 cells per plate and after 24 hours, were replaced with DMEM media supplemented with 5% HS and induced for differentiation. Thereafter, the cells were treated with DMSO, insulin (1.72 μM) or alverine citrate (0.01 μM, 0.1 μM, 1 μM or 10 μM). After 3 days, after removing the media, the cells were washed with phosphate buffer solution (1× PBS) and treated with paraformaldehyde (4%) and fixed at room temperature for 15 minutes. Then, after washing three times with phosphate buffer solution (1× PBS), PBS containing 0.3% triton X-100 was treated with permeabilization buffer and allowed to react at room temperature for 10 minutes. After washing three times with phosphate buffer solution (1× PBS), PBST (blocking buffer, PBS containing 0.5% Tween 20) containing 2% bovine serum albumin was administered and allowed to react for 30 minutes to suppress nonspecific binding of antibodies. After washing with phosphate buffer (1× PBS) three times, 100 μL of primary antibodies (SC-20641, Santa Cruz Biotechnology) to MYH3 diluted to 1:500 were added and allowed to react at room temperature for 1 hour. Thereafter, after washing with phosphate buffer (1× PBS) three times, 100 μL of secondary antibodies (Goat anti-Rabbit IgG-HRP) diluted to 1:5,000 were added and allowed to react at room temperature for 1 hour. After 1 hour, for nuclear staining, after washing with phosphate buffer (1× PBS) three times, the blocking buffer was treated with diluted DAPI dye and allowed to react at room temperature for 10 minutes. Thereafter, after washing with phosphate buffer (1× PBS) three times, the washed cover glass was measured for absorbance at a wavelength of 450 nm and a fluorescent image was taken using a fluorescence microscope. The anti-MyHC antibody stained area was analyzed using imageJ (Java-based image processing program). To confirm the effect of 4-hydroxy alverine on promoting myoblast differentiation, following the same method as Example 1, DMSO, insulin (1.72 μM), alverine citrate (0.01 μM, 0.1 μM, 1 μM or 10 μM), 4-hydroxy alverine (0.01 μM, 0.1 μM, 1 μM or 10 μM) were each administered, and differentiation to myotubes and changes in myotube thickness and diameter were observed.

[2] = system: C57BL/6 male mice; test: Balance coordination test (rota-rod), normal mouse; assay type: in vivo
Description: In order to confirm the muscle strength enhancement effect of alverine citrate, after administering alverine citrate to a mouse, the mouse was tested for motor functions such as grip strength, running, balance coordination, and the like. After motor function tests, muscle weight was measured. In particular, each of 10 week-old C57BL/6 male mice was dosed orally with 200 μL of alverine citrate for 4 weeks, at a daily dose of 17 mg/kg/day (AC-L), 50 mg/kg/day (AC-M) or 150 mg/kg/day (AC-H). This group of mice was set as the experimental group (FIG. 3). The 10 week-old C57BL/6 male mice were purchased from Daehan BioLink. Balance coordination was measured using a rota-rod test. The rota-rod test device consists of 4 test zones, each having a shaft diameter of 3 cm and a lane width of 9 cm, and 5 rotatable circular dividers having a diameter of 60 cm and a round rod. The test was started from a rotating speed of 10 rpm, and the speed was accelerated up to maximum 40 rpm over 5 minutes, and the duration for which the mouse remains inside the rota-rod device, clinging to the round rod without falling, was recorded. The mouse was allowed to rest for 15 minutes after each test and was subjected to three tests in total. An average value of three measurements was calculated.

[3] = system: C2C12 cells; test: Myotube atrophy induced by C26 cancer cell conditioned medium (cachexia model); assay type: cell-based, mouse; details: 1 μM; differentiation media with 33% CM, 3 days
Description: In order to confirm a cachexia treatment effect of alverine citrate and 4-hydroxy alverine, an experiment mimicking a tumor-growth environment by treatment of a cancer cell conditioned medium (CM) was conducted as an ex vivo approach. First, cancer cell CM was prepared using a C26 cancer cell line. Here, as cancel cell growth media (GM), RPMI1640 media supplemented with 10% fetal bovine serum was used. The C26 cancer cell line was cultured using a 100 mm cell culture plate and the cancer cell GM. Here, the media were removed when cell confluency reached 90%. Then, after washing with phosphate buffer (1× buffer), the prepared differentiation media were treated following the same process as in Example 1. After 24 hours, a C26 cancer cell line CM was obtained and filtered using bottle top filters (Thermo, PES, 1 L) before use.
C2C12 cells were dispensed in a 6-well plate treated with the GM of Example 1.1 at a concentration of 5×10^5 cells per plate and after 24 hours, were replaced with DMEM media supplemented with 5% HS and induced for differentiation. […] Here, by treating the experimental groups with 1 μM alverine citrate (AC) and 4-hydroxy alverine (4HA), the effect of suppressing myotube atrophy was evaluated. […] Following the same method as in Example 1.2, by florescent staining using antibodies against MyHC, the expression amount of MyHC was measured.

[4] = system: C57BL/6 male mice; test: Grip strength measurement, normal mouse; assay type: in vivo; details: oral, 4 weeks, 17, 50 or 150 mg/kg/day; compared with normal group
Description: In order to confirm the muscle strength enhancement effect of alverine citrate, after administering alverine citrate to a mouse, the mouse was tested for motor functions such as grip strength, running, balance coordination, and the like. After motor function tests, muscle weight was measured. In particular, each of 10 week-old C57BL/6 male mice was dosed orally with 200 μL of alverine citrate for 4 weeks, at a daily dose of 17 mg/kg/day (AC-L), 50 mg/kg/day (AC-M) or 150 mg/kg/day (AC-H). This group of mice was set as the experimental group (FIG. 3). The 10 week-old C57BL/6 male mice were purchased from Daehan BioLink. Grip strength was measured using a grip strength meter for mice (Bioseb, USA). In particular, the mice were placed on a metal grid connected to an instrument panel through which grip strength can be monitored, and while pulling the mice back by tail, the grip strength by which the mice grabbed the metal grid was measured. Here, 5 consecutive, repeated measurements were recorded and an average value of the 5 measurements was calculated.

For `CCN(CCCc1ccccc1)CCCc1ccccc1` [alverine citrate], the diameter of myotubes ([1]; as the treatment concentration increases (0.01, 0.1, 1, 10 μM), 3 days) was “the diameter of myotubes increased”, the “differentiation of myoblasts to myotubes” value ([1]; compared with DMSO alone, 3 days, insulin 1.72 μM, alverine citrate 0.01-10 μM) was “more differentiated to myotubes” and the “differentiation of myoblasts to myotubes” value ([1]; compared with DMSO or insulin (1.72 μM), 0.01-10 μM) was “more differentiated to myotubes”. The “duration clinging to the round rod, dependence on dose” value ([2]; as the administration dose increased (17, 50, 150 mg/kg/day)) was “also increased proportionally”, the “duration clinging onto the round rod” value ([2]; oral, 4 weeks, 17, 50 or 150 mg/kg/day, compared with normal group) was “increased compared to the normal group mouse” and the myotube atrophy [3] was “myotube atrophy was suppressed”. For the same compound, the grip strength [4] was “higher than that of the mouse in the normal group”.

— US20230149326A1, “PHARMACEUTICAL COMPOSITION FOR PREVENTING OR TREATING MUSCULAR WEAKNESS-RELATED DISEASES COMPRISING ALVERINE, 4-HYDROXY ALVERINE, DERIVATIVE THEREOF, OR PHARMACEUTICALLY ACCEPTABLE SALT THEREOF” (AVENTI INC., priority 2020, published 2023)
